The record followed here is patent US9278922B2 (ABBVIE INC., priority 2009, dated 2016).

This experiment has as its system HCV 1b-Con-1 replicon. In words: HCV 1b-Con-1 replicon assay (luciferase reporter gene, HuH-7 cells). The note with it: Hepatitis C virus, Huh-7, luciferase reporter gene activity in the replicon, in the presence of 5% FBS. It counts as cell-based, Hepatitis C virus (HCV) genotype 1b-Con1. In general terms: A replicon is a self-replicating genome or part of one, used to study replication in cells.
The term EC50 denotes the midpoint of the concentration-response curve. `O=C(Nc1ccc(CN(Cc2ccc(NC(=O)[C@@H]3C[C@@H]4CCC[C@@H]4N3C(=O)[C@@H](c3ccccc3)N3CCCCC3)cc2)c2ccc(F)cc2)cc1)[C@@H]1C[C@@H]2CCC[C@@H]2N1C(=O)[C@@H](c1ccccc1)N1CCCCC1` [Example 124, (2S,3aS,6aS,2′S,3a′S,6a′S)-N,N′-{[(4-fluorophenyl)imino]bis(methanediylbenzene-4,1-diyl)}bis{1-[(2R)-2-phenyl-2-piperidin-1-ylacetyl]octahydrocyclopenta[b]pyrrole-2-carboxamide}]: the EC50 was less than 1 nM. For `COC(=O)N[C@H](C(=O)N1CCC[C@H]1C(=O)Nc1ccc(CN(Cc2ccc(NC(=O)[C@@H]3CCCN3C(=O)[C@@H](NC(=O)OC)C(C)(C)C)cc2)c2ccc(F)c(F)c2)cc1)C(C)(C)C` [Example 90, dimethyl ([(3,4-difluorophenyl)imino]bis{methanediylbenzene-4,1-diylcarbamoyl(2S)pyrrolidine-2,1-diyl[(2S)-3,3-dimethyl-1-oxobutane-1,2-diyl]})biscarbamate], the EC50 was less than 1 nM. For `COC(=O)N[C@H](C(=O)N1CCC[C@H]1C(=O)Nc1ccc(CN(Cc2ccc(NC(=O)[C@@H]3CCCN3C(=O)[C@@H](NC(=O)OC)C(C)(C)C)cc2)C(C)C)cc1)C(C)(C)C` [Example 30, dimethyl ([(1-methylethyl)imino]bis{methanediylbenzene-4,1-diylcarbamoyl(2S)pyrrolidine-2,1-diyl[(2S)-3,3-dimethyl-1-oxobutane-1,2-diyl]})biscarbamate], the EC50 fell in the range of 100 to 250 nM. Consider `O=C(Nc1ccc(CN(Cc2ccc(NC(=O)[C@@H]3CCCN3C(=O)C(c3ccccc3)N3CCCC3=O)cc2)c2ccc(F)cc2)cc1)[C@@H]1CCCN1C(=O)C(c1ccccc1)N1CCCC1=O` (single isomer, unassigned) [Example 129, (2S ,2′S)-N,N′-{[(4-fluorophenyl)imino]bis(methanediylbenzene-4,1-diyl)}bis{1-[(2-oxopyrrolidin-1-yl)(phenyl)acetyl]pyrrolidine-2-carboxamide}], for which the EC50 was 1 to 10 nM.

As for `COC(=O)N[C@H](C(=O)N1CCC[C@H]1C(=O)Nc1ccc(CN(Cc2ccc(NC(=O)[C@@H]3CCCN3C(=O)[C@@H](NC(=O)OC)C(C)(C)C)cc2)C2CCCC2)cc1)C(C)(C)C` [Example 29, dimethyl[(cyclopentylimino)bis{methanediylbenzene-4,1-diylcarbamoyl(2S)pyrrolidine-2,1-diyl[(2S)-3,3-dimethyl-1-oxobutane-1,2-diyl]}]biscarbamate], the EC50 fell in the range of 100 to 250 nM. In the case of `CN(C)[C@@H](C(=O)N1CCC[C@H]1c1nc2cc(CN(Cc3ccc4[nH]c([C@@H]5CCCN5C(=O)[C@@H](c5ccccc5)N(C)C)nc4c3)c3ccccc3)ccc2[nH]1)c1ccccc1` [Example 18, (2R,2′R)-1,1′-((2S,2′S)-2,2′-(5,5′-(phenylazanediyl)bis(methylene)bis(1H-benzo[d]imidazole-5,2-diyl))bis(pyrrolidine-2,1-diyl))bis(2-(dimethylamino)-2-phenylethanone)] it was less than 1 nM. `COC(=O)N[C@H](C(=O)N1CCC[C@H]1C(=O)Nc1ccc(CN(Cc2ccc(NC(=O)[C@@H]3CCCN3C(=O)[C@@H](NC(=O)OC)c3ccccc3)cc2)c2ccccc2)cc1)c1ccccc1` [Example 11, Dimethyl (1S,1′S)-2,2′-((2S,2′S)-2,2′-(4,4′-(phenylazanediyl)bis(methylene)bis(4,1-phenylene)bis(azanediyl))bis(oxomethylene)bis(pyrrolidine-2,1-diyl))bis(2-oxo-1-phenylethane-2,1-diyl)dicarbamate]: the EC50 was less than 1 nM. Turning to `O=C(Nc1ccc(CN(Cc2ccc(NC(=O)[C@@H]3CCCN3C(=O)[C@@H](c3ccccc3)N3CCCC3)cc2)c2ccccc2)cc1)[C@@H]1CCCN1C(=O)[C@@H](c1ccccc1)N1CCCC1` [Example 55, (2S,2′S)-N,N′-[(phenylimino)bis(methanediylbenzene-4,1-diyl)]bis{1-[(2R)-2-phenyl-2-pyrrolidin-1-ylacetyl]pyrrolidine-2-carboxamide}], the EC50 was less than 1 nM. For the compound `COC(=O)N[C@H](C(=O)N1CCC[C@H]1C(=O)Nc1ccc(CN(Cc2ccc(NC(=O)[C@@H]3CCCN3C(=O)[C@@H](c3ccccc3)N3CCCCC3)cc2)c2ccc(F)cc2)cc1)[C@H]1CCOC1` [Example 114, methyl {(1S)-2-{(2S)-2-[(4-{[(4-fluorophenyl){4-[({(2S)-1-[(2R)-2-phenyl-2-piperidin-1-ylacetyl]pyrrolidin-2-yl}carbonyl)amino]benzyl}amino]methyl}phenyl)carbamoyl]pyrrolidin-1-yl}-2-oxo-1-[(3R)-tetrahydrofuran-3-yl]ethyl}carbamate], the EC50 was less than 1 nM. In the case of `COC(=O)N[C@H](C(=O)N1CC[C@H](O)[C@H]1C(=O)Nc1ccc(CN(Cc2ccc(NC(=O)[C@@H]3[C@@H](O)CCN3C(=O)[C@@H](NC(=O)OC)C(C)(C)C)cc2)c2ccc(F)cc2)cc1)C(C)(C)C` [Example 141] it was 10 to 100 nM; in that of `O=C(Nc1ccc(CN(Cc2ccc(NC(=O)[C@@H]3CCCN3C(=O)[C@@H](c3ccccc3)N3CCOCC3)cc2)c2ccccc2)cc1)[C@@H]1CCCN1C(=O)[C@@H](c1ccccc1)N1CCOCC1` [Example 57, (2S,2′S)-N,N′-[(phenylimino)bis(methanediylbenzene-4,1-diyl)]bis{1-[(2R)-2-morpholin-4-yl-2-phenylacetyl]pyrrolidine-2-carboxamide}], less than 1 nM; in that of `CC(C)(C)[C@H](Nc1ncccn1)C(=O)N1CCC[C@H]1C(=O)Nc1ccc(CN(Cc2ccc(NC(=O)[C@@H]3CCCN3C(=O)[C@@H](Nc3ncccn3)C(C)(C)C)cc2)c2ccccc2)cc1` [Example 111, (2S,2′S)-N,N′-[(phenylimino)bis(methanediylbenzene-4,1-diyl)]bis{1-[(2S)-3,3-dimethyl-2-(pyrimidin-2-ylamino)butanoyl]pyrrolidine-2-carboxamide}], 1 to 10 nM.

Turning to `COC(=O)N[C@H](C(=O)N1CC[C@H]1C(=O)Nc1ccc(CN(Cc2ccc(NC(=O)[C@@H]3CCN3C(=O)[C@@H](NC(=O)OC)C(C)(C)C)cc2)c2ccc(F)cc2)cc1)C(C)(C)C` [Example 100, methyl [(1S)-1-{[(2S)-2-{[4-({(4-fluorophenyl)[4-({[(2S)-1-{(2S)-2-[(methoxycarbonyl)amino]-3,3-dimethylbutanoyl}azetidin-2-yl]carbonyl}amino)benzyl]amino}methyl)phenyl]carbamoyl}azetidin-1-yl]carbonyl}-2,2-dimethylpropyl]carbamate], the EC50 was in the range of 1 to 10 nM. On to `COC(=O)N[C@H](C(=O)N1CCC[C@H]1C(=O)Nc1ccc(CN(Cc2ccc(NC(=O)[C@@H]3CCCN3C(=O)[C@@H](NC(=O)OC)C(C)(C)C)cc2)c2ccc(F)cc2)cc1)C(C)(C)C` [Example 13, Dimethyl (2S,2′S)-1,1′-((2S,2′S)-2,2′-(4,4′-(4-fluorophenylazanediyl)bis(methylene)bis(4,1-phenylene)bis(azanediyl))bis(oxomethylene)bis(pyrrolidine-2,1-diyl))bis(3,3-dimethyl-1-oxobutane-2,1-diyl)dicarbamate], for which the EC50 was less than 1 nM. For `COC(=O)N[C@H](C(=O)N1CCC[C@H]1C(=O)Nc1ccc(CN(Cc2ccc(NC(=O)[C@@H]3CCCN3C(=O)[C@@H](NC(=O)OC)[C@H]3CCOC3)cc2)c2ccccc2)cc1)[C@H]1CCOC1` [Example 39, dimethyl {(phenylimino)bis[methanediylbenzene-4,1-diylcarbamoyl(2S)pyrrolidine-2,1-diyl{(1S)-2-oxo-1-[(3R)-tetrahydrofuran-3-yl]ethane-2,1-diyl}]}biscarbamate], the EC50 is less than 1 nM.

`O=C(Nc1ccc(CN(Cc2ccc(NC(=O)[C@@H]3CCCN3C(=O)C(c3ccccc3)N3CC[C@H](F)C3)cc2)c2ccc(F)cc2)cc1)[C@@H]1CCCN1C(=O)C(c1ccccc1)N1CC[C@H](F)C1` (single isomer, unassigned) [Example 120]: the EC50 is less than 1 nM. For the compound `COC(=O)N[C@H](C(=O)N1CCC[C@H]1C(=O)Nc1ccc(CN(Cc2ccc(NC(=O)[C@@H]3CCCN3C(=O)[C@@H](NC(=O)OC)C(C)(C)C)cc2)c2ccccc2)cc1)[C@H]1CCOC1` [Example 53, N-(methoxycarbonyl)-3-methyl-L-valyl-N-(4-{[{4-[(1-{(2S)-2-[(methoxycarbonyl)amino]-2-[(3R)-tetrahydrofuran-3-yl]acetyl}-L-prolyl)amino]benzyl}(phenyl)amino]methyl}phenyl)-L-prolinamide], the EC50 was less than 1 nM.

Consider `O=C(Nc1ccc(CN(Cc2ccc(NC(=O)[C@@H]3COCN3C(=O)OCc3ccccc3)cc2)c2ccc(F)cc2)cc1)[C@@H]1COCN1C(=O)OCc1ccccc1` [Example 126, dibenzyl (4S,4′S)-4,4′-{[(4-fluorophenyl)imino]bis(methanediylbenzene-4,1-diylcarbamoyl)}bis(1,3-oxazolidine-3-carboxylate)], for which the EC50 is 10 to 100 nM. With `COC(=O)N[C@H](C(=O)N1[C@H](C(=O)Nc2ccc(CN(Cc3ccc(NC(=O)[C@@H]4C[C@@H]5CCC[C@@H]5N4C(=O)[C@@H](NC(=O)OC)C(C)(C)C)cc3)c3ccc(F)cc3)cc2)C[C@@H]2CCC[C@@H]21)C(C)(C)C` [Example 123, dimethyl ([(4-fluorophenyl)imino]bis{methanediylbenzene-4,1-diylcarbamoyl(2S,3aS,6aS)hexahydrocyclopenta[b]pyrrole-2,1(2H)-diyl[(2S)-3,3-dimethyl-1-oxobutane-1,2-diyl]})biscarbamate], the EC50 was less than 1 nM. As for `CC(=O)N[C@H](C(=O)N1CCC[C@H]1C(=O)Nc1ccc(CN(Cc2ccc(NC(=O)[C@@H]3CCCN3C(=O)[C@@H](NC(C)=O)C(C)(C)C)cc2)c2ccccc2)cc1)C(C)(C)C` [Example 79, (2S,2′S)-N,N′-[(phenylimino)bis(methanediylbenzene-4,1-diyl)]bis {1-[(2S)-2-(acetylamino)-3,3-dimethylbutanoyl]pyrrolidine-2-carboxamide}], the EC50 was in the range of 10 to 100 nM. In the case of `COC(=O)N[C@H](C(=O)N1CCC[C@H]1C(=O)Nc1ccc(CN(Cc2ccc(NC(=O)[C@@H]3CCCN3C(=O)[C@@H](NC(=O)OC)C(C)C)cc2)c2ccccc2)cc1)C(C)C` [Example 1], the EC50 is less than 1 nM.
